# Source: ChEMBL document CHEMBL3390835, “New insight into the mode of action of vancomycin dimers in bacterial cell wall synthesis” (Medchemcomm, 2011)
# Active and inactive are the calls of the source. The calls are words filed in the database; no cut-off is given here.
# Experiments:
# [1] = test system: Enterococcus faecium; experiment: Inhibition of RNA synthesis in vancomycin B-resistant Enterococcus faecium SRM1101 assessed as [3H]uracil incorporation measured after 15 mins cultivation; type: functional, organism-based
# [2] = test system: Enterococcus faecium; experiment: Inhibition of DNA synthesis in vancomycin B-resistant Enterococcus faecium SRM1101 assessed as [14C]thymidine incorporation measured after 15 mins cultivation; type: functional, organism-based
# [3] = test system: Enterococcus faecium; experiment: Inhibition of fatty acid synthesis in vancomycin B-resistant Enterococcus faecium SRM1101 assessed as [14C]acetic acid incorporation measured after 15 mins cultivation; type: functional, organism-based
# [4] = test system: Enterococcus faecium; experiment: Inhibition of peptidoglycan synthesis in vancomycin B-resistant Enterococcus faecium SRM1101 assessed as [3H]N-acetyl-D-glucosamine incorporation measured after 15 mins cultivation; type: functional, organism-based
# [5] = test system: Enterococcus faecium; experiment: Inhibition of protein synthesis in vancomycin B-resistant Enterococcus faecium SRM1101 assessed as [14C]leucine incorporation measured after 15 mins cultivation; type: functional, organism-based
# [6] = test system: Enterococcus faecium; experiment: Antibacterial activity against vancomycin A-resistant Enterococcus faecium SR7940; type: functional
# [7] = test system: Staphylococcus aureus; experiment: Antibacterial activity against vancomycin-susceptible Staphylococcus aureus RN4220; type: functional
# [8] = test system: Enterococcus faecium; experiment: Antibacterial activity against vancomycin B-resistant Enterococcus faecium SR23598; type: functional
# [9] = test system: Staphylococcus aureus; experiment: Inhibition of cell wall synthesis in vancomycin-resistant Staphylococcus aureus assessed as reduction of peptidoglycan synthesis using UDP-Mur-NAc-pentapeptide (L-Ala-gamma-D-Glu-L-Lys-D-Ala-D-Lactate), UDPGlcNAc and [14C] glycine as precursors; type: functional, organism-based
# [10] = test system: Staphylococcus aureus; experiment: Inhibition of cell wall synthesis in vancomycin-susceptible Staphylococcus aureus assessed as reduction of peptidoglycan synthesis using UDP-Mur-NAc-pentapeptide (L-Ala-gamma-D-Glu-L-Lys-D-Ala-D-Ala), UDPGlcNAc and [14C] glycine as precursors; type: functional, organism-based
# [11] = test system: Staphylococcus aureus; experiment: Inhibition of cell wall synthesis in vancomycin-susceptible Staphylococcus aureus assessed as reduction of lipid intermediate synthesis using UDP-Mur-NAc-pentapeptide (L-Ala-gamma-D-Glu-L-Lys-D-Ala-D-Ala), UDPGlcNAc and [14C] glycine as precursors; type: functional, organism-based
# [12] = test system: Staphylococcus aureus; experiment: Inhibition of cell wall synthesis in vancomycin-resistant Staphylococcus aureus assessed as reduction of lipid intermediate synthesis using UDP-Mur-NAc-pentapeptide (L-Ala-gamma-D-Glu-L-Lys-D-Ala-D-Lactate), UDPGlcNAc and [14C] glycine as precursors; type: functional, organism-based
SMILES,inhibition [1],inhibition [2],inhibition [3],inhibition [4],inhibition [5],MIC [6],MIC [7],MIC [8],IC50 [9],IC50 [10],IC50 [11],IC50 [12]
CN[C@H](CC(C)C)C(=O)N[C@H]1C(=O)N[C@@H](CC(N)=O)C(=O)N[C@H]2C(=O)N[C@H]3C(=O)N[C@H](C(=O)N[C@H](C(=O)O)c4cc(O)cc(O)c4-c4cc3ccc4O)[C@H](O)c3ccc(c(Cl)c3)Oc3cc2cc(c3O[C@@H]2O[C@H](CO)[C@@H](O)[C@H](O)[C@H]2O[C@H]2C[C@](C)(N)[C@H](O)[C@H](C)O2)Oc2ccc(cc2Cl)[C@H]1O,inactive,inactive,inactive,inactive,inactive,,,,,,,
CN[C@H](CC(C)C)C(=O)N[C@H]1C(=O)N[C@@H](CC(N)=O)C(=O)N[C@H]2C(=O)N[C@H]3C(=O)N[C@H](C(=O)N[C@H](C(=O)NCc4cccc(NC(=O)c5c6nc7c(C(=O)Nc8cccc(CNC(=O)[C@H]9NC(=O)[C@H]%10NC(=O)[C@H](NC(=O)[C@@H]%11NC(=O)[C@H](CC(N)=O)NC(=O)[C@H](NC(=O)[C@@H](CC(C)C)NC)[C@H](O)c%12ccc(c(Cl)c%12)Oc%12cc%11cc(c%12O[C@@H]%11O[C@H](CO)[C@@H](O)[C@H](O)[C@H]%11O[C@H]%11C[C@](C)(N)[C@H](O)[C@H](C)O%11)Oc%11ccc(cc%11Cl)[C@H]%10O)c%10ccc(O)c(c%10)-c%10c(O)cc(O)cc%109)c8)ccc(C)c7oc-6c(C)c(=O)c5N)c4)c4cc(O)cc(O)c4-c4cc3ccc4O)[C@H](O)c3ccc(c(Cl)c3)Oc3cc2cc(c3O[C@@H]2O[C@H](CO)[C@@H](O)[C@H](O)[C@H]2O[C@H]2C[C@](C)(N)[C@H](O)[C@H](C)O2)Oc2ccc(cc2Cl)[C@H]1O,inactive,inactive,inactive,inactive,inactive,16 µg/mL,8 µg/mL,16 µg/mL,,,,
CN[C@H](CC(C)C)C(=O)N[C@H]1C(=O)N[C@@H](CC(N)=O)C(=O)N[C@H]2C(=O)N[C@H]3C(=O)N[C@H](C(=O)N[C@H](C(=O)O)c4cc(O)cc(O)c4-c4cc3ccc4O)[C@H](O)c3ccc(c(Cl)c3)Oc3cc2cc(c3O[C@@H]2O[C@H](CO)[C@@H](O)[C@H](O)[C@H]2O[C@H]2C[C@](C)(NCc3c4oc5c(CN[C@@]6(C)C[C@H](O[C@H]7[C@H](Oc8c9cc%10cc8Oc8ccc(cc8Cl)[C@@H](O)[C@@H](NC(=O)[C@@H](CC(C)C)NC)C(=O)N[C@@H](CC(N)=O)C(=O)N[C@H]%10C(=O)N[C@H]8C(=O)N[C@H](C(=O)N[C@H](C(=O)O)c%10cc(O)cc(O)c%10-c%10cc8ccc%10O)[C@H](O)c8ccc(c(Cl)c8)O9)O[C@H](CO)[C@@H](O)[C@@H]7O)O[C@@H](C)[C@H]6O)cccc5nc-4cc(N)c3=O)[C@H](O)[C@H](C)O2)Oc2ccc(cc2Cl)[C@H]1O,,,,,,8 µg/mL,2 µg/mL,1 µg/mL,31 µg/mL,2.2 µg/mL,98 µg/mL,700 µg/mL
CN[C@H](CC(C)C)C(=O)N[C@H]1C(=O)N[C@@H](CC(N)=O)C(=O)N[C@H]2C(=O)N[C@H]3C(=O)N[C@H](C(=O)N[C@H](C(=O)O)c4cc(O)cc(O)c4-c4cc3ccc4O)[C@H](O)c3ccc(c(Cl)c3)Oc3cc2cc(c3O[C@@H]2O[C@H](CO)[C@@H](O)[C@H](O)[C@H]2O[C@H]2C[C@](C)(NCc3cccc(NC(=O)c4ccc(C)c5oc6c(C)c(=O)c(N)c(C(=O)Nc7cccc(CN[C@@]8(C)C[C@H](O[C@H]9[C@H](Oc%10c%11cc%12cc%10Oc%10ccc(cc%10Cl)[C@@H](O)[C@@H](N)C(=O)N[C@@H](CC(N)=O)C(=O)N[C@H]%12C(=O)N[C@H]%10C(=O)N[C@H](C(=O)N[C@H](C(=O)O)c%12cc(O)cc(O)c%12-c%12cc%10ccc%12O)[C@H](O)c%10ccc(c(Cl)c%10)O%11)O[C@H](CO)[C@@H](O)[C@@H]9O)O[C@@H](C)[C@H]8O)c7)c-6nc45)c3)[C@H](O)[C@H](C)O2)Oc2ccc(cc2Cl)[C@H]1O,inactive,inactive,inactive,inactive,inactive,8 µg/mL,1 µg/mL,2 µg/mL,61 µg/mL,11 µg/mL,74 µg/mL,300 µg/mL
Cc1c2oc3c(C)ccc(C(=O)Nc4cccc(CN[C@@]5(C)C[C@H](O[C@H]6[C@H](Oc7c8cc9cc7Oc7ccc(cc7Cl)[C@@H](O)[C@@H](N)C(=O)N[C@@H](CC(N)=O)C(=O)N[C@H]9C(=O)N[C@H]7C(=O)N[C@H](C(=O)N[C@H](C(=O)O)c9cc(O)cc(O)c9-c9cc7ccc9O)[C@H](O)c7ccc(c(Cl)c7)O8)O[C@H](CO)[C@@H](O)[C@@H]6O)O[C@@H](C)[C@H]5O)c4)c3nc-2c(C(=O)Nc2cccc(CN[C@@]3(C)C[C@H](O[C@H]4[C@H](Oc5c6cc7cc5Oc5ccc(cc5Cl)[C@@H](O)[C@@H](N)C(=O)N[C@@H](CC(N)=O)C(=O)N[C@H]7C(=O)N[C@H]5C(=O)N[C@H](C(=O)N[C@H](C(=O)O)c7cc(O)cc(O)c7-c7cc5ccc7O)[C@H](O)c5ccc(c(Cl)c5)O6)O[C@H](CO)[C@@H](O)[C@@H]4O)O[C@@H](C)[C@H]3O)c2)c(N)c1=O,,,,,,> 64 µg/mL,4 µg/mL,32 µg/mL,100 µg/mL,20 µg/mL,460 µg/mL,530 µg/mL
CN[C@H](CC(C)C)C(=O)N[C@H]1C(=O)N[C@@H](CC(N)=O)C(=O)N[C@H]2C(=O)N[C@H]3C(=O)N[C@H](C(=O)N[C@H](C(=O)NCc4c5oc6c(CNC(=O)[C@H]7NC(=O)[C@H]8NC(=O)[C@H](NC(=O)[C@@H]9NC(=O)[C@H](CC(N)=O)NC(=O)[C@H](NC(=O)[C@@H](CC(C)C)NC)[C@H](O)c%10ccc(c(Cl)c%10)Oc%10cc9cc(c%10O[C@@H]9O[C@H](CO)[C@@H](O)[C@H](O)[C@H]9O[C@H]9C[C@](C)(N)[C@H](O)[C@H](C)O9)Oc9ccc(cc9Cl)[C@H]8O)c8ccc(O)c(c8)-c8c(O)cc(O)cc87)cccc6nc-5cc(N)c4=O)c4cc(O)cc(O)c4-c4cc3ccc4O)[C@H](O)c3ccc(c(Cl)c3)Oc3cc2cc(c3O[C@@H]2O[C@H](CO)[C@@H](O)[C@H](O)[C@H]2O[C@H]2C[C@](C)(N)[C@H](O)[C@H](C)O2)Oc2ccc(cc2Cl)[C@H]1O,,,,,,4 µg/mL,16 µg/mL,1 µg/mL,21 µg/mL,1.2 µg/mL,64 µg/mL,200 µg/mL
